Experiment: Water sorption isotherm (dynamic vapor sorption)
Assay type: physicochemical
Details: 25° C., maintained at 90% relative humidity for 6 hours under humid nitrogen purge
Experimental: FIG. 11 is a water sorption isotherm showing the water-uptake of Form II of Coumpound 1 and amorphous Coumpound 1 when stored at 25° C. at different relative humidities.
As discussed above, the invention relates to crystalline forms of Coumpound 1 described herein as Form I, Form II, or Form III; and mixtures of at least two of Form I, Form II, or Form III (“the crystalline compounds of the invention”). WO2013017657 makes no mention of any crystalline form of Compound, any method for preparing a crystalline form of Coumpound 1, or any of the properties of the crystalline forms of Coumpound 1 described herein. The compounds of the invention have advantageous properties (e.g., improved stability and reproducibility) as compared to the amorphous form of Coumpound 1 described in Example 1 herein and WO2013017657. Improvements over the amorphous form include, for example, lower hygroscopicity and decreased tendency to convert to a different solid form. For example, the water-uptake of amorphous Coumpound 1 at 25° C. is 1.4% when maintained at 90% relative humidity for 6 hours under humid nitrogen purge. […]
Water sorption isotherms are determined using a dynamic vapor sorption system (Advantage, DVS, London, UK). […]

water-uptake | Compound
about 0.04% | CC(Oc1ccc(S(C)(=O)=O)cc1C(=O)N1CC2C[C@]2(c2cc(C(F)(F)F)on2)C1)C(F)(F)F (some centres unmarked) [Form II of Coumpound 1]
1.4% | CC(Oc1ccc(S(C)(=O)=O)cc1C(=O)N1CC2C[C@]2(c2cc(C(F)(F)F)on2)C1)C(F)(F)F (some centres unmarked) [amorphous Coumpound 1]
